Test results published in publication PMC10141604, “Small-Molecule Inhibition of Androgen Receptor Dimerization as a Strategy against Prostate Cancer” (ACS Central Science, 2023).
pIC50: −log10 of the molar value.

How the values were obtained:
Type in all cases: cell-based
[1] = system: secreted PSA from LNCaP cells; test: Secreted prostate-specific antigen (PSA) assay; conditions: for pIC50: Homo sapiens, read-out: IC50, PSA levels secreted in the cellular media
Procedure: Secreted Prostate-Specific Antigen (PSA) Assay
After the AR transcriptional activity assay was completed, 300 μl of the media
supernatant including the secreted PSA was measured using […]® 2000 XPi
Immunoassay System (Siemens Ltd., Erlangen, Germany). […]

[2] = system: human gastric epithelial cell (GES-1); test: MTT cell viability assay, GES-1; conditions: 72 h
Procedure: 3-(4,5-dimethythiazol-2-yl)-2,5-diphenyl-2-H-tetrazolium bromide (MTT) colorimetric assay was employed to investigate cell viability. Cells were seeded into 96-well plates with 2-5× 10^3 cells per well (5× 10^3 cells/well for LNCaP, 22RV1, NIH-3T3, GES-1, Chang, […]
NCI-H1299, U2OS, U87) for 1 day incubation at 37 °C. Then, the cells were treated with various concentrations of compounds (22.86 nM - 50 μM) and incubated for 72 h. Then, 10 μl MTT (5 mg/ml) was added into each well and incubated for 4 h. Afterwards, 100 μl of triplex 10% SDS-0.1% HCl-phosophate-buffered saline (PBS) solutions was added into each well and incubated for overnight. The absorbance at 570 nm was measured (Eon, Bioteck, Winooski, VT). […]

PR = molecular target: T1, PR (Homo sapiens, UniProt P06401); test: Luciferase reporter assay for PR (PC3 cells); conditions: 10 μM, 10 nM progesterone
T1 construct: host or cells: PC3
T1 sequence (P06401 1-933): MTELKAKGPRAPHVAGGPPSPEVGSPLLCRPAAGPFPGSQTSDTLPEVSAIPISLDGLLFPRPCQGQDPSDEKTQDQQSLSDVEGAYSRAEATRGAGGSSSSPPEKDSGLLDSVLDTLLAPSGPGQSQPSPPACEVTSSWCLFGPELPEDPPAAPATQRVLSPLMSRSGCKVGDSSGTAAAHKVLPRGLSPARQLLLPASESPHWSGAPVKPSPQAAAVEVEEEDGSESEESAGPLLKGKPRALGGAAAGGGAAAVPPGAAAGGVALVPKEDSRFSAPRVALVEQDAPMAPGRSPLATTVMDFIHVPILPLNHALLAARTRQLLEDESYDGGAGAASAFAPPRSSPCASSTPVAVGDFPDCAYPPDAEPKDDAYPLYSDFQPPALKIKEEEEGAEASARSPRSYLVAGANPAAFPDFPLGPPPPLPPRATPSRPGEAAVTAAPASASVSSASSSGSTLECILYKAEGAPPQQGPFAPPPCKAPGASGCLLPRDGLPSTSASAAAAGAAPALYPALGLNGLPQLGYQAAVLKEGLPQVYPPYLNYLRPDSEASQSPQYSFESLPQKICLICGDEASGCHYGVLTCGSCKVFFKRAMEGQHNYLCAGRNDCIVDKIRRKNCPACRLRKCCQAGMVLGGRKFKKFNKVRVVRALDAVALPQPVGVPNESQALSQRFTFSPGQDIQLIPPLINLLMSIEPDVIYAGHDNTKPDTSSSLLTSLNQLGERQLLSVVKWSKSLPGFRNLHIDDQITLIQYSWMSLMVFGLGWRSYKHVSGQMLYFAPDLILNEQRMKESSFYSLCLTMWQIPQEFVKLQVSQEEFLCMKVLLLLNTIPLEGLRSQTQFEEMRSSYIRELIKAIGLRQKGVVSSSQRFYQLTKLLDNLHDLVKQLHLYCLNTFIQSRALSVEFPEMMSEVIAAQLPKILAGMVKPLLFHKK
Procedure: Luciferase Reporter Assays for PR, GR, and MR
PC3, HeLa, and HEK293T cells were cultured using 5% CSS RPMI-1640, 5% CSS RPMI-1640 and 10% FBS DMEM media in 96-well plates for 24 h, respectively. For PR induction, PC3 (1 × 10^4 cells/well) were transfected with 50 ng pcDNA3-PRB (#89130, Addgene), 24 ng pGL4.36[luc2P MMTV Hygro] (Promega) and 5 ng Renilla using HG-TransGeneTM transfection reagent (#TG-10012, Genomeditech) for 4 h. For GR induction, Hela (1 × 10^4 cells/well) were transfected with 71 ng pCMV -GR11 (#89105, Addgene), 24 ng pGL4.36[luc2P MMTV Hygro] (Promega) and 5 ng Renilla using lip3000 transfection reagent (#L3000075, Thermofisher) for 24 h. For MR induction, HEK293T (1 × 10^4 cells/well) were transfected with 71 ng pCMV-MR gifted by Liu et al. 28, 24 ng of pGL4.36[luc2P MMTV Hygro] (Promega) and 5 ng Renilla using lip3000 transfec tion reagent for 24 h. For the antagonistic models, 10 nM /well progesterone for PC3 cells , 1 nM/well dexamethasone for HeLa, and 5 nM/well aldosterone for HEK293T cells were added to stimulate the cells. Meanwhile, each cell line was treated with a series concentration of compounds (0.4, 2, and 10 μM). For the agonistic models, the cells were directly treated with the compounds without any hormones. Endogenous hormones progesterone, dexamethasone, and aldosterone were considered as agonists for PR, GR, and MR, respectively. The luciferase activities were assessed using the Dual-Glo Luciferase system (#E1910, Promega). […]

pIC50 [1]	PR antagonistic activity (PR)	SMILES	inhibition of the secretion of PSA [1]	cytotoxicity against GES-1 [2]
6.46	moderate	CC(=O)Cc1nsc(NC(=O)c2cc(-c3cccc(C(F)(F)F)c3)oc2C)n1 [Compound M17-B15]	dose-dependent	negligible cytotoxicity
6.74	moderate	CNC(=O)c1ccc(N2C(=S)N(c3ccc(C#N)c(C(F)(F)F)c3)C(=O)C2(C)C)cc1F [Enz, enzalutamide, reference compound]		negligible cytotoxicity
